Assay results published in patent US12577232B2, “N-heterocycle substituted tryptamine derivatives and methods of using” (ENVERIC B[…] INC., priority 2024, dated 2026).
Several values for one entry are separate records, joined by “and”; a condition that tells them apart may be missing. Equal entries are not always repeated. Where two headings read alike, the source gives them in different places.

Columns and labels:
C57BL/6 mice = assay: Mouse Head Twitch Response (HTR) assay to assess hallucinogenic potential; format: in vivo; settings: for mean HTR / HTR compared with the HTR response for 5-Br-DMT (one-way ANOVA, Dunnett): 3 mg/kg i.p.; for mean HTR: 0-15 min interval (preliminary screening); for HTR compared with the HTR response for 5-Br-DMT (one-way ANOVA, Dunnett): alpha 0.05; for HTR: 0-15 min (dose curve)
Procedure: All experiments were approved by the University of Calgary Animal Care and Use Committee in accordance with Canadian Council on Animal Care guidelines. C57BL/6-Elite mixed sex mice were obtained from Charles River (8 weeks old). Until the first experiment, mice were group-housed, then single-housed on a 12:12 h light/dark schedule (lights on at 07:00 hours) with ad libitum access to food and water. Before any behavioral screening, mice were handled and exposed to the testing chamber for at least 5 min each day for three successive days and habituated to the experimental room 1 h before testing. The testing chamber was cleaned with a 70% ethanol solution between experiments to eliminate odor from other mice. Drug compounds (100 mM in DMSO) were diluted in sterile excipient (10% EtOH/15% PEG400 in ddH2O) to 3 mg/kg (preliminary screening) or 0.5, 2, 4, 7, and 10 mg/kg (dose-curve analysis) and administered using intraperitoneal (i.p.) drug injections. […] HTR was analyzed during the 0-to-15-minute window following drug administration. […] Mean HTR between 10 and 5 signifies reduced hallucinogenic potential relative to positive controls.

[1] = Mouse plasma pharmacokinetics (PK) survey; format: in vivo; settings: for AUC: male, C57BL6, mouse, read-out: AUCt0-tlast; for AUC / Cmax: ip; for Cmax: mouse
Procedure: The purpose of the study was to gain insight into the pharmacokinetic (PK) behaviour of drugs in rodents. In some contexts, drug exposure and other PK parameters may be linked to the onset and/or degree of drug efficacy. Toward the goal of assessing PK behaviour, objectives included the collection of plasma from male mice at various times after (1) a single ‘low’ IP (intraperitoneal) dose (4 mg/kg), and (2) a single ‘high’ IP dose (10 mg/kg) of drug for pharmacokinetic monitoring. The experiment was designed to enable the determination of key parameters (e.g., Cmax, AUC) and was conducted in partnership with Inotiv (Boulder, Colorado; www.inotiv.com; Studies 3533-2302132 and 3533-2302538).
The study which took part in two phases (No. 3533-2302132 and 3533-2302538) was conducted by CRO Inotiv (Boulder, CO) and was performed in accordance with the test facility standard operation procedures (SOPs), the World Health Organization Quality Practices in Basic Biomedical Research guidelines, and in compliance with all US state and federal regulations, including USDA Animal Welfare Act 9 CFR Parts 1-3. Federal Register 39129, Jul. 22, 1993. All mice were male, belonging to stain C57BL6 (supplier Envigo). Upon arrival at the facility, the mice were 6 weeks old and were acclimated 7 days prior to injection with food and water ad libitum (3 animals/cage).
Three cohorts of mice were included (n=6 per cohort): (1) control (vehicle treatment), (2) 4 mg/kg compound (XV), and (3) 10 mg/kg compound (XV). On day 0 of the study, animals were randomized into cohorts based on body weight. Dosing (i.p. dose route) was performed on Day 1. Sampling of plasma was performed under anesthesia (inhaled isoflurane) on 3 of 6 animals per cohort at 6 time points (15 min 30 min, 1 h, 2 h, 4 h, and 6 h post-dose) followed by sacrifice at 8 h post-dose, ex-sanguination and final plasma collection. Whole blood (100 μL) was collected for plasma preparation using K2EDTA on ice (centrifugation within 5 min of collection), for a final plasma volume of 50 μL. Samples were stored at −80° C. until analysis.
Bioanalytical analysis of plasma was carried out using standard LC-MS/MS procedures. Prior to analysis of plasma, drug-specific quantification metrics (e.g., standard curve, LOD, Rt) were pre-established using authentic standard (>95%). Calculated concentrations (ng/mL) of analyte were used to determine PK parameters (Cmax, AUC) within the limits of detection (LOD).

5-HT2A receptor = target: T1, 5-HT2A receptor (Homo sapiens, UniProt P28223); assay: 5-HT2A receptor radioligand competition assay (SPA, [3H]ketanserin); format: binding; settings: 1 nM [3H]ketanserin; membranes containing 5-HT2A; read-out: 5-HT2A, Ki
T1 construct: purchased PerkinElmer ES-313-M400UA
T1 sequence (P28223 whole entry): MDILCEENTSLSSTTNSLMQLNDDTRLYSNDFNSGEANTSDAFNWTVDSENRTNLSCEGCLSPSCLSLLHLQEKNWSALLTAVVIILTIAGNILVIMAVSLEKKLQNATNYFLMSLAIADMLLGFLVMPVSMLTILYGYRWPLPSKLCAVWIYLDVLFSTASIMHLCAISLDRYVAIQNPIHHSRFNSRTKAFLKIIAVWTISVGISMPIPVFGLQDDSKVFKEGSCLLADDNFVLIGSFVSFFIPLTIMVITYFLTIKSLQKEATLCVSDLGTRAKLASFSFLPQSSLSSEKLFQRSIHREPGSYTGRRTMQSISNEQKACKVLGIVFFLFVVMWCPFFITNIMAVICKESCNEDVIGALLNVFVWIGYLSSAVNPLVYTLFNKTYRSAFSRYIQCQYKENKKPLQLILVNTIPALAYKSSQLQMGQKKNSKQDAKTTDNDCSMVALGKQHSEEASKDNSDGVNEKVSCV
Procedure: Competition assays were performed as for 5-HT1A assays with the following differences. […] Determination of non-specific binding was carried out in the presence of […] of spiperone (S7395-250MG, Sigma-Aldrich). Equilibrium binding constant for ketanserin (Kd) was determined from saturation binding curves using the ‘one-site saturation binding analysis’ method in GraphPad PRISM software (Version 9.2.0).

[2] = target: T2, human serotonin transporter (SERT) (Homo sapiens, UniProt P31645); assay: biochemical; format: binding; settings: 1 nM imipramine; membranes containing human SERT; read-out: SERT, Ki
T2 construct: purchased PerkinElmer RBHSTM400UA
T2 sequence (P31645 whole entry): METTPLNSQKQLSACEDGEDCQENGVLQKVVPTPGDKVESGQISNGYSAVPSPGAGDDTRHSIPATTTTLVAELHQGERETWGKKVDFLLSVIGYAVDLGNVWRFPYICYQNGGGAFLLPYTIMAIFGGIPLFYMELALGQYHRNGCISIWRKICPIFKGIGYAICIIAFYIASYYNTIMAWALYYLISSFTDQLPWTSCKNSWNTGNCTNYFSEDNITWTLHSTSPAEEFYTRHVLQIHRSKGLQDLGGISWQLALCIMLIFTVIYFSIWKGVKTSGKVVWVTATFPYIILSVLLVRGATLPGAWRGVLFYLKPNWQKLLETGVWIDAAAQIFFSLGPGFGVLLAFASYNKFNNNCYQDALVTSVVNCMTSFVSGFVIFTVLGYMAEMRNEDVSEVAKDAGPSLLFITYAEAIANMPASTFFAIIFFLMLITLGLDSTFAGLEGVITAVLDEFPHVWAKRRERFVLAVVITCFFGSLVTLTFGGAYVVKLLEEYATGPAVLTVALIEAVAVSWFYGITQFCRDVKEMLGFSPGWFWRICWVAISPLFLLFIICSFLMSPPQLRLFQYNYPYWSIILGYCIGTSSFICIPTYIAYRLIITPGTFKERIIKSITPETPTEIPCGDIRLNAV
Procedure: A commonly applied SERT binding assay involves competition binding assays employing radiolabelled ligands. […] Radioactive binding assays were carried out using the Scintillation Proximity Assay (SPA). For saturation binding assay, mixtures of 9 μg of membrane containing human SERT was pre-coupled to 1 mg of SPA beads at room temperature in a tube rotator for 1 hour in binding buffer (50 mM Tris-HCl pH7.4, 120 mM NaCl, 5 mM KCl, 1 mM ascorbic acid, 10 μM pargyline HCl). […] After incubation, the samples are read on a MicroBeta 2 Microplate Counter. Non-specific binding was carried out in the presence of 200 μM of clomipramine hydrochloride (C7291-1G, Sigma). Equilibrium binding constant for imipramine (KD) was determined from saturation binding curve using one-site saturation binding analysis from GraphPad PRISM software (Version 9.2.0). All test compounds were dissolved to 100 mM in DMSO and dilutions were carried out in assay buffer. […] Ki values were calculated from the competition displacement data using the competitive binding analysis from GraphPad PRISM software. […] Vehicle (DMSO) without drug was used as a negative control.

[3] = plasma, 4 mg/kg, male C57BL6 mice, plasma, 4 mg/kg i.p.
[4] = plasma, 10 mg/kg, male C57BL6 mice, plasma, 10 mg/kg i.p.
[5] = male C57BL6 mice, plasma, 4 mg/kg i.p.
[6] = male C57BL6 mice, plasma, 10 mg/kg i.p.

Row | SMILES | mean HTR (C57BL/6 mice) | HTR compared with the HTR response for 5-Br-DMT (one-way ANOVA, Dunnett) (C57BL/6 mice) | HTR (C57BL/6 mice; 7 mg/kg i.p.) | HTR (C57BL/6 mice; 10 mg/kg i.p. (maximum dose)) | AUC [1, 3] [ng·h/mL] | AUC [1, 4] [ng·h/mL] | Cmax [1, 5] [ng/mL] | Cmax [1, 6] [ng/mL] | Ki (5-HT2A receptor) | Ki [2] [µM] | HTR over increasing dosage (C57BL/6 mice; 0.5-10 mg/kg i.p., 0-15 min) | detectability in plasma ([1]; most mice, eight hours post-administration, i.p.) | AUCt0-tlast ([1]; male C57BL6 mice, plasma, 4 mg/kg i.p., 4 mg/kg) [ng·h/mL]
1 | CN(C)CCc1c[nH]c2cc(N3CCC3)ccc12 [Compound (XII)] | 6.25 | not statistically significantly higher | ~20 | ~12 | 39.7 ± 3 | 145 ± 5.3 | 92.8 ± 17.2 | 302 ± 33.7 | 23.7 µM | 1.68 | – | – | –
2 | CN(C)CCc1c[nH]c2cc(F)cc(N3CCOCC3)c12 [Compound (XV)] | 5.0±0.82 | not statistically significantly higher | – | – | 241 ± 71.6 | 590 ± 30.9 | 101 ± 4.9 | 459 ± 16.4 | 0.72 µM | 9.13 | remains low | still detectable | –
3 | CN(C)CCc1c[nH]c2cc(N3CCCC3)cc(F)c12 [Compound (XVIII)] | 5.25 | not statistically significantly higher | – | > 20 | 19.6 ± 0.7 | 76.4 ± 11.5 | 8.8 ± 1.2 | 87.5 ± 8.5 | 6.13 µM | 39.2 | – | – | –
4 | CC(C)N(C)CCc1c[nH]c2cc(N3CCOCC3)c(F)cc12 [Compound (XVII)] | 22.25 | – | – | ~40 | 24.2 ± 1.6 | 164 ± 7.2 | 62.1 ± 3.9 | 384 ± 14.2 | 8.3 µM and 8.34 µM | – | – | – | 27.2 ± 1.6
